Test results published in patent US20250188044A1 (HARBIN MEDISAN PHARMACEUTICAL CO., LTD., priority 2021, published 2025).
Like-named read-outs stand apart in the source and are kept apart here.

Columns and labels:
Assay type in all cases: cell-based
[1] = molecular target: T1, PPARα (Homo sapiens, UniProt Q07869); experiment: Gal4-PPARα(LBD) reporter gene agonistic activity assay in Cos-7 cells; conditions: for EC50: Cos-7 cells, Gal4-PPARα(LBD) reporter, 16 h, 100% = GW7647 10 nM; for agonistic activity for PPARα (EC50 level, in words): Cos-7 reporter assay
T1 construct: hPPARα (279aa-580aa); expressed in transfected cells; host or cells: Cos-7
T1 sequence (Q07869 167-468 limits assumed): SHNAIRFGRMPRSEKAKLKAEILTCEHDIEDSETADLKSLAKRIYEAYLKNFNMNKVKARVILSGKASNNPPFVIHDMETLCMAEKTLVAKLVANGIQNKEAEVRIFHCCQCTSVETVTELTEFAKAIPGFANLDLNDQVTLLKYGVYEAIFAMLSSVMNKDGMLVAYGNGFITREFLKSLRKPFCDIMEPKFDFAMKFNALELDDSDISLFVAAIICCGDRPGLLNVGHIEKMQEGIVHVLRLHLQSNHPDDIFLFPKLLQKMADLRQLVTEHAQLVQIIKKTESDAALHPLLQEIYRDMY
Description: (§1) Cos-7 cells (African green monkey kidney fibroblasts, commonly used tool cells) were cultured in a 10 cm cell culture dish in a DMEM complete medium containing 10% fetal bovine serum. When the cells grew to a density of about 70%, the medium was replaced with a fresh medium for later transfection. […] The plasmid working solution was then added to the cell culture dish for cell transfection. […] Test compounds were prepared into appropriate test concentrations with a complete medium and then added to the 96-well plate. […] 10 μL of lysate was pipetted into a white opaque 384-well plate, and then 10 μL of reporter gene assay buffer (purchased from Shanghai Beyotime Biological Tech. Co., Ltd.) was added. The bioluminescence was detected by using a multimode microplate reader, and the corresponding half maximal effective concentration (EC50) value was calculated according to the detection value.

[2] = molecular target: T2, PPARγ (Homo sapiens, UniProt P37231); experiment: Gal4-PPARγ(LBD) reporter gene agonistic activity assay in Cos-7 cells; conditions: Cos-7 cells, Gal4-PPARγ(LBD) reporter, 16 h; 100% = Rosiglitazone 1 μM
T2 construct: hPPARγ (281aa-554aa); expressed in transfected cells; host or cells: Cos-7
T2 sequence (P37231 232-505 limits assumed): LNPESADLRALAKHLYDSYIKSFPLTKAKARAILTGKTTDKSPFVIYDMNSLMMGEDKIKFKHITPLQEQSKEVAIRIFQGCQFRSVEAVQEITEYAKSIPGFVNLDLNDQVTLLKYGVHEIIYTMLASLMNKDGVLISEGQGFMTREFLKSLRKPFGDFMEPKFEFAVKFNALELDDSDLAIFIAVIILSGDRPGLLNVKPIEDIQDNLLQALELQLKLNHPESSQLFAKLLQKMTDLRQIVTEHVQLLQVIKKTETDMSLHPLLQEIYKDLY
Description: as §1

[3] = molecular target: T3, PPARδ (Homo sapiens, UniProt Q03181); experiment: Gal4-PPARδ(LBD) reporter gene agonistic activity assay in Cos-7 cells; conditions: for agonistic activity for PPARδ (EC50 level, in words): Cos-7 reporter assay
T3 construct: expressed in transfected cells; host or cells: Cos-7
T3 sequence (Q03181 139-441 limits assumed): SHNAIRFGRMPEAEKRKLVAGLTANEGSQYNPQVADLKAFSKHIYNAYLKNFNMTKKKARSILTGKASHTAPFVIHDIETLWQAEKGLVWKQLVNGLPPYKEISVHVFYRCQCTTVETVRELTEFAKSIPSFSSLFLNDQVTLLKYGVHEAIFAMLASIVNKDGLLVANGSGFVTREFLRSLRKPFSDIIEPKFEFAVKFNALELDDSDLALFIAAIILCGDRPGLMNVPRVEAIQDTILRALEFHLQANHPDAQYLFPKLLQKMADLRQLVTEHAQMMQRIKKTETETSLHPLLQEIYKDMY
Description: as §1

[4] = Cos-7 cells, Gal4-PPARδ(LBD) reporter, 16 h, 100% = GW501516 10 nM

Compound	EC50 [1]	EC50 [2]	EC50 [3, 4]	agonistic activity for PPARδ (EC50 level, in words) [3]	agonistic activity for PPARα (EC50 level, in words) [1]	EC50 [3]
Cc1cc(Cn2ncn(-c3ccc(C(C)C)cc3)c2=O)cc(C)c1OC(C)(C)C(=O)O [Compound 115, 2-(4-((4-(4-Isopropylphenyl)-5-oxo-4,5-dihydro-1H-1,2,4-triazol-1-yl)methyl)-2,6-dimethylphenoxy)-2-methylpropionic acid]	8 nM	1760 nM	–	–	–	–
CCc1cc(Cn2ncn(-c3ccc(C(F)(F)F)cc3)c2=O)cc(CC)c1OC(C)(C)C(=O)O [Compound 191, 2-(2,6-Diethyl-4-((5-oxo-4-(4-(trifluoromethyl)phenyl)-4,5-dihydro-1H-1,2,4-triazol-1-yl)methyl)phenoxy)-2-methylpropionic acid]	44 nM	–	42 nM	at nanomolar levels	at nanomolar levels	–
CC(C)(Oc1ccc(Cn2ncn(-c3ccc(C(F)(F)F)cc3)c2=O)cc1C(F)(F)F)C(=O)O [Compound 147]	–	1800 nM	81 nM	–	–	–
Cc1cc(SCn2ncn(-c3ccc(C(F)(F)F)cc3)c2=O)cc(C)c1OC(C)(C)C(=O)O [Compound 198, 2-(2,6-Dimethyl-4-(((5-oxo-4-(4-(trifluoromethyl)phenyl)-4,5-dihydro-1H-1,2,4-triazol-1-yl)methyl)thio)phenoxy)-2-methylpropionic acid]	289 nM	2850 nM	–	–	–	–
CC(C)(Oc1ccc(Cn2ncn(-c3ccc(C(F)(F)F)cc3)c2=O)cc1)C(=O)O [Compound 137, 2-(4-((4-(4-Trifluoromethylphenyl)-5-oxo-4,5-dihydro-1H-1,2,4-triazol-1-yl)methyl)phenoxy)-2-methylpropionic acid]	–	–	1520 nM	–	–	–
Cc1cc(Cn2ncn(-c3ccc(C(F)(F)F)cc3)c2=O)ccc1OC(C)(C)C(=O)O [Compound 77, 2-Methyl-2-(2-methyl-4-((5-oxo-4-(4-(trifluoromethyl)phenyl)-4,5-dihydro-1H-1,2,4-triazol-1-yl)methyl)phenoxy)propionic acid]	103 nM	–	132 nM	–	–	–
Cc1cc(OCn2ncn(-c3ccc(C(F)(F)F)cc3)c2=O)cc(C)c1OC(C)(C)C(=O)O [Compound 196, 2-(2,6-Dimethyl-4-((5-oxo-4-(4-(trifluoromethyl)phenyl)-4,5-dihydro-1H-1,2,4-triazol-1-yl)methoxy)phenoxy)-2-methylpropionic acid]	86 nM	–	56 nM	–	–	–
CC(C)(Oc1c(F)cc(Cn2ncn(-c3ccc(C(F)(F)F)cc3)c2=O)cc1F)C(=O)O [Compound 127, 2-(2,6-Difluoro-4-((5-oxo-4-(4-(trifluoromethyl)phenyl)-4,5-dihydro-1H-1,2,4-triazol-1-yl)methyl)phenoxy)-2-methylpropionic acid]	–	–	586 nM	–	–	–
CC(C)(Oc1ccc(Cn2ncn(-c3ccc(C(F)(F)F)cc3)c2=O)cc1F)C(=O)O [Compound 123, 2-(2-Fluoro-4-((5-oxo-4-(4-(trifluoromethyl)phenyl)-4,5-dihydro-1H-1,2,4-triazol-1-yl)methyl)phenoxy)-2-methylpropionic acid]	394 nM	–	664 nM	–	–	–
Cc1cc(Cn2ncn(-c3cccc(C(F)(F)F)c3)c2=O)cc(C)c1OC(C)(C)C(=O)O [Compound 121, 2-(2,6-Dimethyl-4-((5-oxo-4-(3-(trifluoromethyl)phenyl)-4,5-dihydro-1H-1,2,4-triazol-1-yl)methyl)phenoxy)-2-methylpropionic acid]	–	–	39 nM	–	–	–
Cc1cc(CCCn2ncn(-c3ccc(C(F)(F)F)cc3)c2=O)cc(C)c1OC(C)(C)C(=O)O [Compound 200, 2-(2,6-Dimethyl-4-(3-(5-oxo-4-(4-(trifluoromethyl)phenyl)-4,5-dihydro-1H-1,2,4-triazol-1-yl)propyl)phenoxy)-2-methylpropionic acid]	134 nM	–	212 nM	–	–	–
CC(C)(Oc1c(Cl)cc(Cn2ncn(-c3ccc(OC(F)(F)F)cc3)c2=O)cc1Cl)C(=O)O [Compound 149, 2-(2,6-Dichloro-4-((5-oxo-4-(4-(trifluoromethoxy)phenyl)-4,5-dihydro-1H-1,2,4-triazo 1-1-yl)methyl)phenoxy)-2-methylpropionic acid]	7 nM	–	225 nM	–	–	–
Cc1cc(Cn2ncn(-c3ccc(F)cc3)c2=O)cc(C)c1OC(C)(C)C(=O)O [Compound 109, 2-(4-((4-(4-Fluorophenyl)-5-oxo-4,5-dihydro-1H-1,2,4-triazol-1-yl)methyl)-2,6-dimethylphenoxy)-2-methylpropionic acid]	645 nM	–	389 nM	–	–	–
CC(C)(Oc1c(F)cc(Cn2ncn(-c3ccc(OC(F)(F)F)cc3)c2=O)cc1F)C(=O)O [Compound 155, 2-(2,6-Difluoro-4-((5-oxo-4-(4-(trifluoromethoxy)phenyl)-4,5-dihydro-1H-1,2,4-triazol-1-yl)methyl)phenoxy)-2-methylpropionic acid]	351 nM	–	1370 nM	–	–	–
CC(C)(Oc1ccc(Cn2ncn(-c3ccc(OC(F)(F)F)cc3)c2=O)cc1)C(=O)O [Compound 153, 2-Methyl-2-(4-((5-oxo-4-(4-(trifluoromethoxy)phenyl)-4,5-dihydro-1H-1,2,4-triazol-1-yl)methyl)phenoxy)propionic acid]	498 nM	–	1680 nM	–	–	–
Cc1cc(Cn2ncn(-c3ccc(OC(F)(F)F)cc3)c2=O)cc(Cl)c1OC(C)(C)C(=O)O [Compound 145, 2-(2-Chloro-6-methyl-4-((5-oxo-4-(4-(trifluoromethoxy)phenyl)-4,5-dihydro-1H-1,2,4-triazol-1-yl)methyl)phenoxy)-2-methylpropionic acid]	8 nM	–	–	at nanomolar levels	at nanomolar levels	29 nM
CCOc1ccc(-n2cnn(Cc3cc(C)c(OC(C)(C)C(=O)O)c(C)c3)c2=O)cc1 [Compound 69, 2-(4-((4-(4-Ethoxyphenyl)-5-oxo-4,5-dihydro-1H-1,2,4-triazol-1-yl)methyl)-2,6-dimethylphenoxy)-2-methylpropionic acid]	33 nM	–	481 nM	–	–	–
CC(C)(Oc1ccc(Cn2ncn(-c3ccc(OC(F)(F)F)cc3)c2=O)cc1F)C(=O)O [Compound 151, 2-(2-Fluoro-4-((5-oxo-4-(4-(trifluoromethoxy)phenyl)-4,5-dihydro-1H-1,2,4-triazol-1-yl)methyl)phenoxy)-2-methylpropionic acid]	220 nM	–	914 nM	–	–	–
[2H]C([2H])(c1cc(C)c(OC(C)(C)C(=O)O)c(C)c1)n1ncn(-c2ccc(C(F)(F)F)cc2)c1=O [Compound 187, 2-(2,6-Dimethyl-4-((5-oxo-4-(4-(trifluoromethyl)phenyl)-4,5-dihydro-1H-1,2,4-triazol-1-yl)methyl-d2)phenoxy)-2-methylpropionic acid]	10 nM	–	–	at nanomolar levels	at nanomolar levels	7 nM
Cc1cc(Cn2ncn(-c3ccc(-c4ccccc4)cc3)c2=O)cc(C)c1OC(C)(C)C(=O)O [Compound 117, 2-(4-((4-([1,1′-Biphenyl]-4-yl)-5-oxo-4,5-dihydro-1H-1,2,4-triazol-1-yl)methyl)-2,6-dimethylphenoxy)-2-methylpropionic acid]	–	–	135 nM	–	–	–
Cc1cc(CCn2ncn(-c3ccc(C(F)(F)F)cc3)c2=O)cc(C)c1OC(C)(C)C(=O)O [Compound 194, 2-(2,6-Dimethyl-4-(2-(5-oxo-4-(4-(trifluoromethyl)phenyl)-4,5-dihydro-1H-1,2,4-triazol-1-yl)ethyl)phenoxy)-2-methylpropionic acid]	–	2020 nM	38 nM	at nanomolar levels	–	–
